Measured values from patent publication US20140235520A1, “Perfume Compositions” (Givaudan Nederland Services B.V., priority 2005, published 2014).

How the values were obtained:
[1] = system: Escherichia coli ATCC 10536; test: Standardised biofilm detachment assay (96 well microtitre plate, crystal violet OD540) in quarter strength GPC base Formula A; type: cell-based; conditions: for Group (PDV class: active / non-active / antagonist to biofilm detachment): ingredient as 1 of 4 equal-weight ingredients (other 3 Group B), perfume 0.25% w/w in quarter strength GPC base Formula A, 20 min 21° C., flavour ingredients classed in toothpaste base
[2] = system: Escherichia coli ATCC 10536; test: Biofilm detachment assay in quarter strength modified transparent silica toothpaste base (Formula B); type: cell-based; conditions: positive control, Example 3
Protocol: The procedure described in example 1(a) was repeated but wherein flavour compositions comprising flavour ingredients from the oral care palette to be tested were prepared. The compositions were added to a modified transparent silica toothpaste base (diluted to quarter strength) together with de-ionised water to produce test mixtures with the composition as set out in Formula B below. [table] A percentage detachment value (PDV) for each test mixture was then calculated using the following formula: PDV=100−([OD540 for Test Mixture÷OD540 for Water Control]×100). […] The PDV scores were therefore adjusted to account for base influences on flavour behaviour and Detachment Index (DI) values quoted for each flavour composition.

COc1ccc(CC(C)C=O)cc1 (stereo not drawn) [2-methyl-3-[4-(methyoxy)phenyl]propanal]
Group (PDV class: active / non-active / antagonist to biofilm detachment) [1]: C (Group C materials that are antagonistic to biofilm detachment are defined as those having a PDV (as defined above) of less than or equal to 0)

CCCCCCCCCCCCOS(=O)(=O)[O-].[Na+] [SLS, sodium lauryl sulphate, reference compound]
PDV ([1]; positive control, 2% w/w in deionised water): about 80% | PDV [2]: about 80%

CCC(=O)OC1CC2CC1C1C=CCC21 (stereo not drawn) [tricyclo[5.2.1.0̂{2,6}]dec-4-en-8-yl propanoate]
Group (PDV class: active / non-active / antagonist to biofilm detachment) [1]: B (Group B materials that are non-active to biofilm detachment are defined as those having a PDV (as defined above) of less than 9 and greater than 0)

CC1(C)CCCC2(C)C1CCC1(C)OCCC12 (stereo not drawn) [3a,6,6,9a-tetramethyldodecahydronaphtho[2,1-{b}]furan]
Group (PDV class: active / non-active / antagonist to biofilm detachment) [1]: B (Group B materials that are non-active to biofilm detachment are defined as those having a PDV (as defined above) of less than 9 and greater than 0)

CC(=O)C1=C(C)C2CC3(C1)C(C)CCC3C2(C)C (stereo not drawn) [1-(2,6,6,8-tetramethyltricyclo [5.3.1.0̂{1,5}]undec-8-en-9-yl)ethanone]
Group (PDV class: active / non-active / antagonist to biofilm detachment) [1]: A (Group A materials that assist biofilm detachment are defined as those having a PDV (as defined above) of at least 9)
